± gives the expanded uncertainty stated by the source.
Test: molar heat capacity at constant pressure; xn = mol fraction of the nth substance listed
Settings: 101 kPa, Liquid, Small sample (50 mg) DSC

OCCO [1,2-ethanediol] + O
molar heat capacity at constant pressure (293.15 K, x1 = 0.0312): 88.03 ± 2.2 J/K/mol
molar heat capacity at constant pressure (293.15 K, x1 = 0.0676): 87.6 ± 2.1 J/K/mol
molar heat capacity at constant pressure (293.15 K, x1 = 0.1105): 86.7 ± 2.1 J/K/mol
molar heat capacity at constant pressure (293.15 K, x1 = 0.162): 89.39 ± 2.2 J/K/mol
molar heat capacity at constant pressure (293.15 K, x1 = 0.2248): 93.61 ± 2.3 J/K/mol
molar heat capacity at constant pressure (293.15 K, x1 = 0.3031): 98.37 ± 2.4 J/K/mol
molar heat capacity at constant pressure (293.15 K, x1 = 0.4036): 104.66 ± 2.6 J/K/mol
molar heat capacity at constant pressure (293.15 K, x1 = 0.537): 114.3 ± 2.8 J/K/mol
molar heat capacity at constant pressure (293.15 K, x1 = 0.723): 127.9 ± 3.1 J/K/mol
molar heat capacity at constant pressure (293.15 K, x1 = 1): 147.47 ± 3.6 J/K/mol
molar heat capacity at constant pressure (303.15 K, x1 = 0.0312): 87.89 ± 2.2 J/K/mol
molar heat capacity at constant pressure (303.15 K, x1 = 0.0676): 87.81 ± 2.1 J/K/mol
molar heat capacity at constant pressure (303.15 K, x1 = 0.1105): 87.05 ± 2.1 J/K/mol
molar heat capacity at constant pressure (303.15 K, x1 = 0.162): 89.67 ± 2.2 J/K/mol
molar heat capacity at constant pressure (303.15 K, x1 = 0.2248): 94.42 ± 2.3 J/K/mol
molar heat capacity at constant pressure (303.15 K, x1 = 0.3031): 99.15 ± 2.4 J/K/mol
molar heat capacity at constant pressure (303.15 K, x1 = 0.4036): 105.99 ± 2.6 J/K/mol
molar heat capacity at constant pressure (303.15 K, x1 = 0.537): 115.72 ± 2.8 J/K/mol
molar heat capacity at constant pressure (303.15 K, x1 = 0.723): 129.45 ± 3.2 J/K/mol
molar heat capacity at constant pressure (303.15 K, x1 = 1): 149.71 ± 3.7 J/K/mol
molar heat capacity at constant pressure (313.15 K, x1 = 0.0312): 88.36 ± 2.2 J/K/mol
molar heat capacity at constant pressure (313.15 K, x1 = 0.0676): 88.19 ± 2.2 J/K/mol
molar heat capacity at constant pressure (313.15 K, x1 = 0.1105): 87.48 ± 2.2 J/K/mol
molar heat capacity at constant pressure (313.15 K, x1 = 0.162): 90.47 ± 2.2 J/K/mol
molar heat capacity at constant pressure (313.15 K, x1 = 0.2248): 94.89 ± 2.3 J/K/mol
molar heat capacity at constant pressure (313.15 K, x1 = 0.3031): 100.31 ± 2.4 J/K/mol
molar heat capacity at constant pressure (313.15 K, x1 = 0.4036): 108.06 ± 2.6 J/K/mol
molar heat capacity at constant pressure (313.15 K, x1 = 0.537): 117.68 ± 2.9 J/K/mol
molar heat capacity at constant pressure (313.15 K, x1 = 0.723): 131.2 ± 3.2 J/K/mol
molar heat capacity at constant pressure (313.15 K, x1 = 1): 152 ± 3.7 J/K/mol
molar heat capacity at constant pressure (323.15 K, x1 = 0.0312): 88.63 ± 2.2 J/K/mol
molar heat capacity at constant pressure (323.15 K, x1 = 0.0676): 88.59 ± 2.2 J/K/mol
molar heat capacity at constant pressure (323.15 K, x1 = 0.1105): 87.53 ± 2.2 J/K/mol
molar heat capacity at constant pressure (323.15 K, x1 = 0.162): 91 ± 2.2 J/K/mol
molar heat capacity at constant pressure (323.15 K, x1 = 0.2248): 95.93 ± 2.3 J/K/mol
molar heat capacity at constant pressure (323.15 K, x1 = 0.3031): 101.88 ± 2.5 J/K/mol
molar heat capacity at constant pressure (323.15 K, x1 = 0.4036): 109.53 ± 2.7 J/K/mol
molar heat capacity at constant pressure (323.15 K, x1 = 0.537): 119.76 ± 2.9 J/K/mol
molar heat capacity at constant pressure (323.15 K, x1 = 0.723): 133.39 ± 3.3 J/K/mol
molar heat capacity at constant pressure (323.15 K, x1 = 1): 153.8 ± 3.8 J/K/mol
molar heat capacity at constant pressure (333.15 K, x1 = 0.0312): 88.8 ± 2.2 J/K/mol
molar heat capacity at constant pressure (333.15 K, x1 = 0.0676): 88.99 ± 2.2 J/K/mol
molar heat capacity at constant pressure (333.15 K, x1 = 0.1105): 87.76 ± 2.2 J/K/mol
molar heat capacity at constant pressure (333.15 K, x1 = 0.162): 91.5 ± 2.2 J/K/mol
molar heat capacity at constant pressure (333.15 K, x1 = 0.2248): 96.6 ± 2.4 J/K/mol
molar heat capacity at constant pressure (333.15 K, x1 = 0.3031): 102.38 ± 2.5 J/K/mol
molar heat capacity at constant pressure (333.15 K, x1 = 0.4036): 111 ± 2.7 J/K/mol
molar heat capacity at constant pressure (333.15 K, x1 = 0.537): 121.18 ± 3 J/K/mol
molar heat capacity at constant pressure (333.15 K, x1 = 0.723): 135.38 ± 3.3 J/K/mol
molar heat capacity at constant pressure (333.15 K, x1 = 1): 156.22 ± 3.8 J/K/mol
molar heat capacity at constant pressure (343.15 K, x1 = 0.0312): 88.88 ± 2.2 J/K/mol
molar heat capacity at constant pressure (343.15 K, x1 = 0.0676): 89.1 ± 2.2 J/K/mol
molar heat capacity at constant pressure (343.15 K, x1 = 0.1105): 88.31 ± 2.2 J/K/mol
molar heat capacity at constant pressure (343.15 K, x1 = 0.162): 92.56 ± 2.3 J/K/mol
molar heat capacity at constant pressure (343.15 K, x1 = 0.2248): 97.46 ± 2.4 J/K/mol
molar heat capacity at constant pressure (343.15 K, x1 = 0.3031): 103.64 ± 2.5 J/K/mol
molar heat capacity at constant pressure (343.15 K, x1 = 0.4036): 111.93 ± 2.8 J/K/mol
molar heat capacity at constant pressure (343.15 K, x1 = 0.537): 122.85 ± 3 J/K/mol
molar heat capacity at constant pressure (343.15 K, x1 = 0.723): 138.08 ± 3.4 J/K/mol
molar heat capacity at constant pressure (343.15 K, x1 = 1): 159.7 ± 3.9 J/K/mol
molar heat capacity at constant pressure (353.15 K, x1 = 0.0312): 89.15 ± 2.2 J/K/mol
molar heat capacity at constant pressure (353.15 K, x1 = 0.0676): 89.47 ± 2.2 J/K/mol
molar heat capacity at constant pressure (353.15 K, x1 = 0.1105): 88.97 ± 2.2 J/K/mol
molar heat capacity at constant pressure (353.15 K, x1 = 0.162): 92.31 ± 2.3 J/K/mol
molar heat capacity at constant pressure (353.15 K, x1 = 0.2248): 98.61 ± 2.4 J/K/mol
molar heat capacity at constant pressure (353.15 K, x1 = 0.3031): 104.99 ± 2.6 J/K/mol
molar heat capacity at constant pressure (353.15 K, x1 = 0.4036): 113.83 ± 2.8 J/K/mol
molar heat capacity at constant pressure (353.15 K, x1 = 0.537): 124.97 ± 3 J/K/mol
molar heat capacity at constant pressure (353.15 K, x1 = 0.723): 140.57 ± 3.4 J/K/mol
molar heat capacity at constant pressure (353.15 K, x1 = 1): 161 ± 4 J/K/mol
molar heat capacity at constant pressure (363.15 K, x1 = 0.0312): 89.25 ± 2.2 J/K/mol
molar heat capacity at constant pressure (363.15 K, x1 = 0.0676): 89.6 ± 2.2 J/K/mol
molar heat capacity at constant pressure (363.15 K, x1 = 0.1105): 89.27 ± 2.2 J/K/mol
molar heat capacity at constant pressure (363.15 K, x1 = 0.162): 93.51 ± 2.3 J/K/mol
molar heat capacity at constant pressure (363.15 K, x1 = 0.2248): 99.61 ± 2.4 J/K/mol
molar heat capacity at constant pressure (363.15 K, x1 = 0.3031): 106.52 ± 2.6 J/K/mol
molar heat capacity at constant pressure (363.15 K, x1 = 0.4036): 115.04 ± 2.8 J/K/mol
molar heat capacity at constant pressure (363.15 K, x1 = 0.537): 126.81 ± 3.1 J/K/mol
molar heat capacity at constant pressure (363.15 K, x1 = 0.723): 142.17 ± 3.5 J/K/mol
molar heat capacity at constant pressure (363.15 K, x1 = 1): 164.98 ± 4 J/K/mol
molar heat capacity at constant pressure (373.15 K, x1 = 0.1105): 89.52 ± 2.2 J/K/mol
molar heat capacity at constant pressure (373.15 K, x1 = 0.162): 93.89 ± 2.3 J/K/mol
molar heat capacity at constant pressure (373.15 K, x1 = 0.2248): 100.23 ± 2.5 J/K/mol
molar heat capacity at constant pressure (373.15 K, x1 = 0.3031): 107.47 ± 2.6 J/K/mol
molar heat capacity at constant pressure (373.15 K, x1 = 0.4036): 116.01 ± 2.8 J/K/mol
molar heat capacity at constant pressure (373.15 K, x1 = 0.537): 128.22 ± 3.1 J/K/mol
molar heat capacity at constant pressure (373.15 K, x1 = 0.723): 144.36 ± 3.5 J/K/mol
molar heat capacity at constant pressure (373.15 K, x1 = 1): 168.45 ± 4.1 J/K/mol

Source: the NIST ThermoML archive (doi:10.1021/je020140j)
